Results on 19 molecules are retold here after article PMC3530927 (Journal of medicinal chemistry, 2012).

One data set deals with KCNQ2 channels (Homo sapiens, UniProt O43526). Description: KCNQ2 automated patch clamp assay. The data set is classed as cell-based. The note with it: for inhibition at 30 µM: read-out: KCNQ2 % at 30 μM (IC50 column, saturating response not obtained); for fold loss of potency: KCNQ2 inhibitor, compared to the unsubstituted phenyl group (5). For orientation: Patch clamp records ionic current or voltage across a cell membrane.

Data set [1] can be described thus: >300 assays performed within the MLPCN network. The note with it: weakly active in each of four assays out of >300.
The nature of a further data set: Intrinsic clearance. The data set is classed as in vitro ADME. The following applies: rat hepatic microsomes.
Data set [2] is described as follows: Snapshot in vivo PK, IP plasma and brain levels. The note with it: brain, 10 mg/kg.
A further data set has as its system calcium channel, L-type. Put plainly: Ricerca Lead Profiling Screen radioligand binding.
Another data set has as its target calcium channel, N-type (Homo sapiens, UniProt Q00975). Description: Ricerca Lead Profiling Screen radioligand binding.
For a further data set, the system named is potassium channel (KATP). Description: Ricerca Lead Profiling Screen radioligand binding.
A further data set addresses potassium channel (hERG) (Homo sapiens, UniProt Q12809). Description: Ricerca Lead Profiling Screen radioligand binding.
The mark [3] stands for this setting: KCNQ2, common assay system (PubChem AID: 588426) vs reported values.

potassium channel (hERG), sequence (Q12809 whole entry): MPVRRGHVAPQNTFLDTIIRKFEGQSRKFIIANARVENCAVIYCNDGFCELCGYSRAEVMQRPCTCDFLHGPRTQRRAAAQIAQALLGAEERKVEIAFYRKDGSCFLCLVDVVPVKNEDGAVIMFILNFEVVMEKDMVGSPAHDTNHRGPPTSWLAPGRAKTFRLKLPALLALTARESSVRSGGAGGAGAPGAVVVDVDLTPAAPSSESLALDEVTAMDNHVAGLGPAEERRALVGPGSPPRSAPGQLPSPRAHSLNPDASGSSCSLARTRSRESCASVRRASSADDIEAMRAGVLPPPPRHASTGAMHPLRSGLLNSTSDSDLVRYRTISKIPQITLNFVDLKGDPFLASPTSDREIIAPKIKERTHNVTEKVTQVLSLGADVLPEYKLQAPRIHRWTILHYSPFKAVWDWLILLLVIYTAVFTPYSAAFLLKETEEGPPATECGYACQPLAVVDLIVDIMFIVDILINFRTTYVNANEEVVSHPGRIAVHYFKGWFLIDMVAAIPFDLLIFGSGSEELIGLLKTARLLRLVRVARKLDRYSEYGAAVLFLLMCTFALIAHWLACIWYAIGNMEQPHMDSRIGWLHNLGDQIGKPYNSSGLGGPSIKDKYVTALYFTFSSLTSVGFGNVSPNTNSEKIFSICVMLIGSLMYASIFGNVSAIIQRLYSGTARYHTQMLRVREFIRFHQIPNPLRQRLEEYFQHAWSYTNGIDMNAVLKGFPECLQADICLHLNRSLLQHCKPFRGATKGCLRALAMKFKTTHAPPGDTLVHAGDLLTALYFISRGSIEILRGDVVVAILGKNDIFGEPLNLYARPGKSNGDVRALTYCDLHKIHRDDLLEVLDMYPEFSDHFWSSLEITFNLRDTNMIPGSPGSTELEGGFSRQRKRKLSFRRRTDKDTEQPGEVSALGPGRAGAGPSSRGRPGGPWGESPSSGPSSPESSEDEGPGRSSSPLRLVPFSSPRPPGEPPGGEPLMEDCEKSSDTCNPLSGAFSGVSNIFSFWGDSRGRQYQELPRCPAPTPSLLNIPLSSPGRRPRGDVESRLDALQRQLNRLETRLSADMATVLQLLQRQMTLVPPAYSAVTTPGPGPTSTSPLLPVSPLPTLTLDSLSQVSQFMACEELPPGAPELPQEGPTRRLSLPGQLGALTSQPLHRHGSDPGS
calcium channel, N-type, sequence (Q00975 whole entry): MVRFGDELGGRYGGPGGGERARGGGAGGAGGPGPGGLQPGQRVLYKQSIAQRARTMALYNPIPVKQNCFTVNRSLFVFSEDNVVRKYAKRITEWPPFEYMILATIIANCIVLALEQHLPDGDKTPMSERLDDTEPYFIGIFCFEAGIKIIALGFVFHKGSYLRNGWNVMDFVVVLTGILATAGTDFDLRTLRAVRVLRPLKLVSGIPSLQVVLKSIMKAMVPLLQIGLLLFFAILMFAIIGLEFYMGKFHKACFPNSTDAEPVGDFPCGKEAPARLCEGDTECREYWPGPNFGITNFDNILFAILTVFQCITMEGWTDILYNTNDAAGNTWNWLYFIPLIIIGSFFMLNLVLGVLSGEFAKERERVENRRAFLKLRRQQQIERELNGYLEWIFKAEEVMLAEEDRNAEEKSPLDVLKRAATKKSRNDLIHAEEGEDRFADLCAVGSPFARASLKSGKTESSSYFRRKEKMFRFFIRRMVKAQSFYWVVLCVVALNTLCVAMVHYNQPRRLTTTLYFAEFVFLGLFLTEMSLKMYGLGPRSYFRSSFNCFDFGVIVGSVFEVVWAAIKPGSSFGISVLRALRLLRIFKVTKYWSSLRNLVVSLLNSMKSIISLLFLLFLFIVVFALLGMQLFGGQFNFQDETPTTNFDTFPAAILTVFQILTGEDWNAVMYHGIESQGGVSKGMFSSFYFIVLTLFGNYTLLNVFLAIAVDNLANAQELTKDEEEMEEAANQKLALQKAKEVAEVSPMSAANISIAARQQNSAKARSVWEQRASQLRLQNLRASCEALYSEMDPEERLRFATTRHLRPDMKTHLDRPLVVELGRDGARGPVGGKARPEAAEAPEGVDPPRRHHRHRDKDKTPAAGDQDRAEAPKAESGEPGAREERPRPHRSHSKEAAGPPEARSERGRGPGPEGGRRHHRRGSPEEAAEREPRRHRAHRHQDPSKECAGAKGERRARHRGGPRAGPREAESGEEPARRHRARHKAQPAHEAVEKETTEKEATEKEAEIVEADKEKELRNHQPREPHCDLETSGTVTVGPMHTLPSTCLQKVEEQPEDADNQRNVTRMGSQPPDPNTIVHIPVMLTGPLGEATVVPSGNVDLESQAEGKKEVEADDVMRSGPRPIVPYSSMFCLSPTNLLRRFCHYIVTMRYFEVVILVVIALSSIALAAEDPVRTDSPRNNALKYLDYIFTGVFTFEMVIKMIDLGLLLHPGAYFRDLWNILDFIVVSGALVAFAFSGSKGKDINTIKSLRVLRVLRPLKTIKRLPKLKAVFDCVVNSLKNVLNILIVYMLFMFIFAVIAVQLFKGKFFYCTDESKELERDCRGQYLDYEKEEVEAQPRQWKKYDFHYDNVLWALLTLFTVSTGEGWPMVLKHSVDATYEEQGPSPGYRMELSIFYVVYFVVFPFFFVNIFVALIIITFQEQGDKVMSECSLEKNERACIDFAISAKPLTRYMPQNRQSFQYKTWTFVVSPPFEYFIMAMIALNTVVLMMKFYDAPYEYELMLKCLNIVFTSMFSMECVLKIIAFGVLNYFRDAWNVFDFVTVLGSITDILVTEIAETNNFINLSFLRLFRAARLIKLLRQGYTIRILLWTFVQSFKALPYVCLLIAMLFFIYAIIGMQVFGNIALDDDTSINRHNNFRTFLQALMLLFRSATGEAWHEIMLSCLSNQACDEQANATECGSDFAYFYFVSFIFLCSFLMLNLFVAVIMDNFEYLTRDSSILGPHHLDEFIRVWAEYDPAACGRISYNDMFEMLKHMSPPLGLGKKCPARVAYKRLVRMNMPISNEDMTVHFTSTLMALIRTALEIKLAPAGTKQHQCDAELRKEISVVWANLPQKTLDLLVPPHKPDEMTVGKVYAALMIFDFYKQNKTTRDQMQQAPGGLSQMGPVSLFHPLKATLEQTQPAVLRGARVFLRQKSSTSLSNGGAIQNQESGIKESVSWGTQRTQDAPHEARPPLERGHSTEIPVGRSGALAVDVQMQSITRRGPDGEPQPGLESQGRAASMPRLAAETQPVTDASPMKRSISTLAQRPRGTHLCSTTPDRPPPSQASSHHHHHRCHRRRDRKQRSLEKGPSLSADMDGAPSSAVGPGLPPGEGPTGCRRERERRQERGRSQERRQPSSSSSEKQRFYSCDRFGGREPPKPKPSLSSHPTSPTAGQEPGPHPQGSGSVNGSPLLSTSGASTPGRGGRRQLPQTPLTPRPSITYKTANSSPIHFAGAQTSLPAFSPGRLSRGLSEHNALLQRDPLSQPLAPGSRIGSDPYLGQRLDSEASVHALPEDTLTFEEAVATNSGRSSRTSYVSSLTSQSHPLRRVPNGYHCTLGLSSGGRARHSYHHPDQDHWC

For the molecule `O=C(Nc1ccccc1N1CCCC1)C1CCOc2ccccc21` (stereo not drawn) [compound 16], the “KCNQ2 activity (in words)” value at KCNQ2 channels is recorded as “not tolerated”. With `CCC(C(=O)Nc1ccccc1N1CCCCC1)c1ccccc1` (stereo not drawn) [compound 48], on KCNQ2 channels, the “KCNQ2 activity (in words)” value is reported as “loss of activity” and the inhibition at 30 µM turned out to be 32%. In the case of `CCC(C(=O)Nc1ccccc1N1CCCC1)c1ccccc1Cl` (stereo not drawn) [compound 30], on KCNQ2 channels, the “fold loss of potency” value stood at 20 fold.

Turning to `CCC(C(=O)Nc1ccccc1OC)c1ccccc1` (stereo not drawn) [compound 63], at KCNQ2 channels, the inhibition at 30 µM amounted to 28.1%.

With `O=C(Nc1ccccc1N1CCCC1)C1(c2ccccc2)CC1` [compound 14], on KCNQ2 channels, the “KCNQ2 activity (in words)” value is listed as “not tolerated”. Turning to `O=C(Cc1cccc(Cl)c1)Nc1ccccc1N1CCCCC1` [compound 49], at KCNQ2 channels, the “KCNQ2 activity (in words)” value is reported as “loss of activity”. Regarding `CCC(C(=O)Nc1ccccc1N1CCCC1)c1ccc(OC)c(OC)c1` (stereo not drawn) [compound 19], the “fold loss of potency” value on KCNQ2 channels is listed as 125 fold. For `CCC(NC(=O)c1ccccc1N1CCCC1)c1ccccc1` (stereo not drawn) [compound 17], on KCNQ2 channels, the “KCNQ2 activity (in words)” value is on record as “complete loss of activity” and the inhibition at 30 µM worked out at 38%. Take `O=C1c2ccccc2C(Cc2ccncc2)(Cc2ccncc2)c2ccccc21` [compound 1, XE-991, reference compound]: the “fold more potent compared to previous values” on KCNQ2 channels (setting [3]) was 8 – 10 fold. Regarding `CCC(C(=O)Nc1ccccc1N1CCCC1)c1ccccc1` (stereo not drawn) [compound 5], the “activity in four MLPCN assays not dependent on KCNQ2” value in data set [1] is greater than 15 µM.

As for `CC(C)(C(=O)Nc1ccccc1N1CCCC1)c1ccccc1` [compound 15], the “KCNQ2 activity (in words)” value on KCNQ2 channels is reported as “not tolerated”. With `CCC(C(=O)Nc1ccccc1N(C)C)c1ccccc1` (stereo not drawn) [compound 56], the inhibition at 30 µM on KCNQ2 channels came to 59.8%. As for `CCC(C(=O)N(C)c1ccccc1N1CCCC1)c1ccccc1` (stereo not drawn) [compound 18], the “KCNQ2 activity (in words)” value at KCNQ2 channels is “complete loss of activity”. Consider `CC[C@H](C(=O)Nc1ccccc1N1CCCC1)c1ccccc1` [(S)-5, (S)-2-Phenyl-N-(2-(pyrrolidin-1-yl)phenyl)butanamide], for which, in “Intrinsic clearance”, the “Rat CLHEP” value came out at 67.3 mL/min/kg. The molecule also came in with a concentration at 1 h in data set [2] of 672 nM. In addition, the “calcium channel L-type binding (in words)” value in the data set with calcium channel, L-type was “not inhibited”. Also, the “calcium channel N-type binding (in words)” value at calcium channel, N-type was “not inhibited”. For the same molecule, the “potassium channel KATP binding (in words)” value in the data set with potassium channel (KATP) is “not inhibited”. The “potassium channel hERG binding (in words)” value on potassium channel (hERG) was “not inhibited”. Consider `O=C1N(c2ccccc2)c2ccccc2C1(Cc1ccncc1)Cc1ccncc1` [compound 2, Linopirdine, reference compound], for which the “fold more potent compared to previous values” on KCNQ2 channels (setting [3]) is 8 – 10 fold. On to `c1ccc(C(NCc2cccnc2)(c2ccccc2)c2ccccc2)cc1` [compound 3, UCL2077, reference compound], for which the “fold less potent compared to previous values” on KCNQ2 channels (setting [3]) was ~ 7 fold. Regarding `O=C(Cc1cccc(Cl)c1)Nc1cccc(N2CCCC2)c1` [compound 45], the “fold loss of activity” value on KCNQ2 channels (KCNQ2 activator series, 3-pyrrolidine vs 2-pyrrolidine) is on record as ~ 5 fold. Consider `CCC(C(=O)Nc1ccccc1N(C)Cc1ccccc1)c1ccccc1` (stereo not drawn) [compound 64], for which, on KCNQ2 channels, the inhibition at 30 µM came out at 27.1%.

In the case of `CC(C)C(C(=O)Nc1ccccc1N1CCCC1)c1ccccc1` (stereo not drawn) [compound 9], at KCNQ2 channels, the “KCNQ2 activity (in words)” value is recorded as “not tolerated” and the inhibition at 30 µM came out at 25.4%.
